From patent US10253052B2, “HBED-bisphosphonates, radiometal conjugates and their use as theranostic agents” (Five Eleven Pharma Inc., priority 2015, dated 2019)
Several values for one entry are separate records, joined by “and”; a condition that tells them apart may be missing. Equal values may be shown once.

Legend:
[1] = In vivo biodistribution in mice; set-up: species or system normal CD-1 male mice; settings: for bone to blood ratio / bone to muscle ratio / Biodistribution: Blood / Biodistribution: Bone / Biodistribution: Brain / Biodistribution: Heart / Biodistribution: Kidney / Biodistribution: Liver / Biodistribution: Lung / Biodistribution: Muscle / Biodistribution: Pancreas / Biodistribution: Skin / Biodistribution: Spleen: iv
Description: Biodistribution experiments were performed by intravenously administering ^68Ga labeled 1a-h, 2, 3, BPAMD, and [^18F]NaF into normal, healthy male CD-1 mice (25-30 g). The injection activity was 20-30 μCi/animal. […] Organs of interest were harvested, weighed, and counts of radioactivity were measured by a gamma counter. The biodistribution of each sample was calculated as a percentage of the injected dose per gram of wet tissue weight (% ID/g). Tibia and femur bones were harvested and counted as bone samples.

[2] = In vitro binding to hydroxyapatite; settings: 20 mg hydroxyapatite in saline, 10 min at room temperature
Description: Hydroxyapatite (20 mg, Sigma-Aldrich, reagent grade powder) was incubated in isotonic saline (1 mL) for 24 h. Subsequently, either ^68Ga labeled 1a-h, 2, 3, BPAMD, or [^18F]NaF (1 μCi) was added to the hydroxyapatite suspension. After vortexing for 10 seconds, the suspension was incubated for 10 min at room temperature. The samples were then centrifuged at 10,000 rpm for 3 min and the supernatant was removed. The hydroxyapatite fraction was washed twice with saline (1 mL). Radioactivity in the combined supernatants and the hydroxyapatite fraction was measured using a gamma counter. The proportion of the ^68Ga complex binding to hydroxyapatite was determined as percent of ^68Ga absorbed to hydroxyapatite.

O=C([O-])CN(CCN(CC(=O)[O-])Cc1cc(CCC(=O)N[C@@H](CCC(=O)O)C(=O)O)ccc1[O-])Cc1cc(CCC(=O)NC(P(=O)(O)O)P(=O)(O)O)ccc1[O-].[68Ga+3] [[^68Ga]1f]
bone to blood ratio ([1]; 2 min): 1 | bone to muscle ratio ([1]; 2 min): 4 | Biodistribution: Blood ([1]; 2 min post injection): 8.98 ± 0.68 % dose/g | Biodistribution: Bone ([1]; 2 min post injection): 8.62 ± 0.23 % dose/g | Biodistribution: Brain ([1]; 2 min post injection): 0.22 ± 0.00 % dose/g | Biodistribution: Heart ([1]; 2 min post injection): 3.53 ± 0.57 % dose/g | Biodistribution: Kidney ([1]; 2 min post injection): 24.7 ± 3.13 % dose/g | Biodistribution: Liver ([1]; 2 min post injection): 2.43 ± 0.27 % dose/g | Biodistribution: Lung ([1]; 2 min post injection): 5.01 ± 0.81 % dose/g | Biodistribution: Muscle ([1]; 2 min post injection): 2.10 ± 0.12 % dose/g | Biodistribution: Pancreas ([1]; 2 min post injection): 1.96 ± 0.15 % dose/g | Biodistribution: Skin ([1]; 2 min post injection): 2.62 ± 0.11 % dose/g | Biodistribution: Spleen ([1]; 2 min post injection): 2.20 ± 0.26 % dose/g | bone to blood ratio ([1]; 30 min): 33 | bone to muscle ratio ([1]; 30 min): 74 | Biodistribution: Blood ([1]; 30 min (0.5 hr) post injection): 0.52 ± 0.05 % dose/g | Biodistribution: Bone ([1]; 30 min (0.5 hr) post injection): 16.8 ± 1.66 % dose/g | Biodistribution: Brain ([1]; 30 min (0.5 hr) post injection): 0.02 ± 0.00 % dose/g | Biodistribution: Heart ([1]; 30 min (0.5 hr) post injection): 0.23 ± 0.01 % dose/g | Biodistribution: Kidney ([1]; 30 min (0.5 hr) post injection): 2.05 ± 0.52 % dose/g | Biodistribution: Liver ([1]; 30 min (0.5 hr) post injection): 0.28 ± 0.02 % dose/g | Biodistribution: Lung ([1]; 30 min (0.5 hr) post injection): 0.42 ± 0.03 % dose/g | Biodistribution: Muscle ([1]; 30 min (0.5 hr) post injection): 0.23 ± 0.01 % dose/g | Biodistribution: Pancreas ([1]; 30 min (0.5 hr) post injection): 0.15 ± 0.01 % dose/g | Biodistribution: Skin ([1]; 30 min (0.5 hr) post injection): 0.49 ± 0.04 % dose/g | Biodistribution: Spleen ([1]; 30 min (0.5 hr) post injection): 0.22 ± 0.03 % dose/g | bone to blood ratio ([1]; 60 min): 78 | bone to muscle ratio ([1]; 60 min): 222 | Biodistribution: Blood ([1]; 60 min (1 hr) post injection): 0.18 ± 0.04 % dose/g | Biodistribution: Bone ([1]; 60 min (1 hr) post injection): 14.4 ± 3.01 % dose/g | Biodistribution: Brain ([1]; 60 min (1 hr) post injection): 0.01 ± 0.00 % dose/g | Biodistribution: Heart ([1]; 60 min (1 hr) post injection): 0.11 ± 0.01 % dose/g | Biodistribution: Kidney ([1]; 60 min (1 hr) post injection): 1.59 ± 0.72 % dose/g | Biodistribution: Liver ([1]; 60 min (1 hr) post injection): 0.20 ± 0.02 % dose/g | Biodistribution: Lung ([1]; 60 min (1 hr) post injection): 0.21 ± 0.01 % dose/g | Biodistribution: Muscle ([1]; 60 min (1 hr) post injection): 0.06 ± 0.00 % dose/g | Biodistribution: Pancreas ([1]; 60 min (1 hr) post injection): 0.08 ± 0.02 % dose/g | Biodistribution: Skin ([1]; 60 min (1 hr) post injection): 0.15 ± 0.01 % dose/g | Biodistribution: Spleen ([1]; 60 min (1 hr) post injection): 0.12 ± 0.04 % dose/g | bone to blood ratio ([1]; 120 min): 180 | bone to muscle ratio ([1]; 120 min): 374 | Biodistribution: Blood ([1]; 120 min post injection): 0.09 ± 0.01 % dose/g | Biodistribution: Bone ([1]; 120 min post injection): 16.7 ± 1.12 % dose/g | Biodistribution: Brain ([1]; 120 min post injection): 0.01 ± 0.01 % dose/g | Biodistribution: Heart ([1]; 120 min post injection): 0.07 ± 0.01 % dose/g | Biodistribution: Kidney ([1]; 120 min post injection): 1.08 ± 0.20 % dose/g | Biodistribution: Liver ([1]; 120 min post injection): 0.19 ± 0.01 % dose/g | Biodistribution: Lung ([1]; 120 min post injection): 0.13 ± 0.01 % dose/g | Biodistribution: Muscle ([1]; 120 min post injection): 0.04 ± 0.01 % dose/g | Biodistribution: Pancreas ([1]; 120 min post injection): 0.04 ± 0.00 % dose/g | Biodistribution: Skin ([1]; 120 min post injection): 0.09 ± 0.01 % dose/g | Biodistribution: Spleen ([1]; 120 min post injection): 0.08 ± 0.01 % dose/g | Hydroxyapatite Binding (%) [2]: 96.4 ± 1.2%

O=C([O-])CN(CCN(CC(=O)[O-])Cc1cc(CCC(=O)NC(P(=O)(O)O)P(=O)(O)O)ccc1[O-])Cc1cc(CCC(=O)NCCNC(=O)CN2CCN(CC(=O)O)CCN(CC(=O)O)CCN(CC(=O)O)CC2)ccc1[O-].[68Ga+3] [[^68Ga]1h]
bone to blood ratio ([1]; 2 min): 0.9 | bone to muscle ratio ([1]; 2 min): 4.3 | Biodistribution: Blood ([1]; 2 min post injection): 9.69 ± 1.49 % dose/g | Biodistribution: Bone ([1]; 2 min post injection): 8.31 ± 0.84 % dose/g | Biodistribution: Brain ([1]; 2 min post injection): 0.24 ± 0.03 % dose/g | Biodistribution: Heart ([1]; 2 min post injection): 3.10 ± 0.35 % dose/g | Biodistribution: Kidney ([1]; 2 min post injection): 18.2 ± 1.65 % dose/g | Biodistribution: Liver ([1]; 2 min post injection): 1.99 ± 0.29 % dose/g | Biodistribution: Lung ([1]; 2 min post injection): 4.35 ± 0.52 % dose/g | Biodistribution: Muscle ([1]; 2 min post injection): 1.92 ± 0.14 % dose/g | Biodistribution: Pancreas ([1]; 2 min post injection): 1.48 ± 0.27 % dose/g | Biodistribution: Skin ([1]; 2 min post injection): 2.31 ± 0.25 % dose/g | Biodistribution: Spleen ([1]; 2 min post injection): 1.91 ± 0.48 % dose/g | bone to blood ratio ([1]; 30 min): 27 | bone to muscle ratio ([1]; 30 min): 85 | Biodistribution: Blood ([1]; 30 min (0.5 hr) post injection): 0.45 ± 0.07 % dose/g | Biodistribution: Bone ([1]; 30 min (0.5 hr) post injection): 12.1 ± 0.84 % dose/g | Biodistribution: Brain ([1]; 30 min (0.5 hr) post injection): 0.02 ± 0.01 % dose/g | Biodistribution: Heart ([1]; 30 min (0.5 hr) post injection): 0.24 ± 0.12 % dose/g | Biodistribution: Kidney ([1]; 30 min (0.5 hr) post injection): 2.07 ± 0.62 % dose/g | Biodistribution: Liver ([1]; 30 min (0.5 hr) post injection): 0.15 ± 0.05 % dose/g | Biodistribution: Lung ([1]; 30 min (0.5 hr) post injection): 0.31 ± 0.05 % dose/g | Biodistribution: Muscle ([1]; 30 min (0.5 hr) post injection): 0.14 ± 0.04 % dose/g | Biodistribution: Pancreas ([1]; 30 min (0.5 hr) post injection): 0.09 ± 0.03 % dose/g | Biodistribution: Skin ([1]; 30 min (0.5 hr) post injection): 0.39 ± 0.13 % dose/g | Biodistribution: Spleen ([1]; 30 min (0.5 hr) post injection): 0.13 ± 0.03 % dose/g | bone to blood ratio ([1]; 60 min): 112 | bone to muscle ratio ([1]; 60 min): 233 | Biodistribution: Blood ([1]; 60 min (1 hr) post injection): 0.11 ± 0.05 % dose/g | Biodistribution: Bone ([1]; 60 min (1 hr) post injection): 11.9±1.3 % dose/g and 11.9 ± 1.31 % dose/g | Biodistribution: Brain ([1]; 60 min (1 hr) post injection): 0.01 ± 0.00 % dose/g | Biodistribution: Heart ([1]; 60 min (1 hr) post injection): 0.08 ± 0.01 % dose/g | Biodistribution: Kidney ([1]; 60 min (1 hr) post injection): 1.13 ± 0.08 % dose/g | Biodistribution: Liver ([1]; 60 min (1 hr) post injection): 0.07 ± 0.01 % dose/g | Biodistribution: Lung ([1]; 60 min (1 hr) post injection): 0.14 ± 0.03 % dose/g | Biodistribution: Muscle ([1]; 60 min (1 hr) post injection): 0.05 ± 0.01 % dose/g | Biodistribution: Pancreas ([1]; 60 min (1 hr) post injection): 0.05 ± 0.02 % dose/g | Biodistribution: Skin ([1]; 60 min (1 hr) post injection): 0.11 ± 0.02 % dose/g | Biodistribution: Spleen ([1]; 60 min (1 hr) post injection): 0.07 ± 0.01 % dose/g | bone to blood ratio ([1]; 120 min): 305 | bone to muscle ratio ([1]; 120 min): 383 | Biodistribution: Blood ([1]; 120 min post injection): 0.04 ± 0.01 % dose/g | Biodistribution: Bone ([1]; 120 min post injection): 12.0 ± 0.82 % dose/g | Biodistribution: Brain ([1]; 120 min post injection): 0.01 ± 0.01 % dose/g | Biodistribution: Heart ([1]; 120 min post injection): 0.05 ± 0.01 % dose/g | Biodistribution: Kidney ([1]; 120 min post injection): 1.67 ± 0.54 % dose/g | Biodistribution: Liver ([1]; 120 min post injection): 0.09 ± 0.04 % dose/g | Biodistribution: Lung ([1]; 120 min post injection): 0.10 ± 0.01 % dose/g | Biodistribution: Muscle ([1]; 120 min post injection): 0.03 ± 0.00 % dose/g | Biodistribution: Pancreas ([1]; 120 min post injection): 0.04 ± 0.01 % dose/g | Biodistribution: Skin ([1]; 120 min post injection): 0.07 ± 0.01 % dose/g | Biodistribution: Spleen ([1]; 120 min post injection): 0.07 ± 0.01 % dose/g | Biodistribution result in words (organ uptake, retention, excretion) ([1]; normal mice after iv injection): excellent bone uptake and fast kidney excretion | Hydroxyapatite Binding (%) [2]: 96.7 ± 0.9%
